Test results taken from ChEMBL document CHEMBL5375973, “Design and Synthesis of Novel Near-Infrared Fluorescence Probes Based on an Open Conformation of a Cytochrome P450 1B1 Complex for Molecular Imaging of Colorectal Tumors” (J Med Chem, 2023).
pIC50, pKd: −log10 of the molar value. One block for each compound: values may come before it.

Experiments:
Cytochrome P450 1A2 = molecular target: T1, Cytochrome P450 1A2 (Homo sapiens, UniProt P05177); experiment: Inhibition of recombinant CYP1A2 (unknown origin) using 7-ethoxyresorufin as substrate preincubated for 5 mins followed by NADPH addition incubated for 50 mins by EROD assay; assay type: ADME
T1 sequence (P05177 whole entry): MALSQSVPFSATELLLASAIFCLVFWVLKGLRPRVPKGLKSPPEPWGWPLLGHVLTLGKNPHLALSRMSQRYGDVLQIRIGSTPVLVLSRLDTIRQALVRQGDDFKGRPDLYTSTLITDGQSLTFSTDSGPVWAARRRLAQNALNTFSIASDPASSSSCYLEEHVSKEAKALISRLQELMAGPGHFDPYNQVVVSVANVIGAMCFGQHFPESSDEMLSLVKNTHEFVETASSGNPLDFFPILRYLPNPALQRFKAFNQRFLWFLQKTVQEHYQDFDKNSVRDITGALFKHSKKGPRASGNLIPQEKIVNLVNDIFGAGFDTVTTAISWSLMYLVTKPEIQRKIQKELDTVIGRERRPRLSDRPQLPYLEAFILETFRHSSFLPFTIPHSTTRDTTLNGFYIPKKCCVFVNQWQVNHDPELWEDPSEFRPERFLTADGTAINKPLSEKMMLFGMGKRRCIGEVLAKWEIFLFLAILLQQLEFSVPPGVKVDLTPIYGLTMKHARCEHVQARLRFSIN

HFF-1 = experiment: Cytotoxicity against human HFF-1 cells at 1 to 10 uM incubated for 24 hrs by MTT assay; assay type: toxicity, cell-based; settings: hff-1, 24 h, dose 1-10 µM
HCT-15 = experiment: Cytotoxicity against human HCT-15 cells assessed as cell viability at 10 uM incubated for 24 hrs by MTT assay; assay type: functional; settings: read-out: Activity
[1] = Stability of the compound assessed as drug degradation observed after 24 hrs by HPLC analysis; assay type: physicochemical
Cytochrome P450 1B1 [2] = molecular target: T2, Cytochrome P450 1B1 (Homo sapiens, UniProt Q16678); experiment: Binding affinity to CYP1B1 in human HCT-15 cells assessed as apparent dissociation constant incubated for 1 hr by flow cytometry analysis; assay type: ADME, cell-based; settings: read-out: Kd(app)
T2 sequence (Q16678 whole entry): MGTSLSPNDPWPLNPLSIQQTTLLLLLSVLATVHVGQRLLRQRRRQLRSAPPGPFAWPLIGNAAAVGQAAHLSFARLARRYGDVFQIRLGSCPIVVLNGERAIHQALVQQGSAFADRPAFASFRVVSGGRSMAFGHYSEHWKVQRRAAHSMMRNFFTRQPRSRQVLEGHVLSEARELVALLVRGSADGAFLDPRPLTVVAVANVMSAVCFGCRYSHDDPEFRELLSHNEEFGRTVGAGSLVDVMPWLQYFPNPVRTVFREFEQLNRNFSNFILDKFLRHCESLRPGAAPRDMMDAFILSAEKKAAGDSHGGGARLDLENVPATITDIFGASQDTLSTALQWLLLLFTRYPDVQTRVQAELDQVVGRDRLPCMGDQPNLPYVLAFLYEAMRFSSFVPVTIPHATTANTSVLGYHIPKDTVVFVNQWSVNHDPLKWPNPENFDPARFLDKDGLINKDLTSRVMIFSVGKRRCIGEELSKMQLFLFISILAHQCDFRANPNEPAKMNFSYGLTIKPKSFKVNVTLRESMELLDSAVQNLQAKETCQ

Cytochrome P450 1B1 [3] = molecular target: T2, Cytochrome P450 1B1; experiment: Inhibition of recombinant CYP1B1 (unknown origin) using 7-ethoxyresorufin as substrate preincubated for 5 mins followed by NADPH addition incubated for 35 mins by EROD assay; assay type: ADME
[4] = Drug distribution in BALB/C mouse xenografted with human HCT-15 cells by measuring fluorescence intensity ratio in muscle tissue at 12 nmol at iv administration in presence of CYP1B1 inhibitor, ANF observed after 24 hrs by IVIS imaging analysis; assay type: ADME, organism-based; settings: in vivo
[5] = Drug distribution in BALB/C mouse xenografted with human HCT-15 cells by measuring fluorescence intensity ratio in muscle tissue at 12 nmol at iv administration observed after 24 hrs by IVIS imaging analysis; assay type: ADME, organism-based; settings: in vivo
[6] = Drug distribution in BALB/C mouse xenografted with human HCT-15 cells by measuring fluorescence intensity ratio in tumor at 12 nmol at iv administration in presence of CYP1B1 inhibitor, ANF observed after 4 hrs by IVIS imaging analysis; assay type: ADME, organism-based, Neoplasm; settings: in vivo
[7] = Drug distribution in BALB/C mouse xenografted with human HCT-15 cells assessed as increase in fluorescence intensity in tumor at 12 nmol at iv administration observed after 6 hr by IVIS imaging analysis; assay type: ADME, organism-based, Neoplasm; settings: in vivo
[8] = Drug distribution in BALB/C mouse xenografted with human HCT-15 cells assessed as increase in fluorescence intensity in liver at 12 nmol at iv administration observed after 24 hrs by IVIS imaging analysis; assay type: ADME, organism-based; settings: in vivo
[9] = Drug distribution in BALB/C mouse xenografted with human HCT-15 cells by measuring fluorescence intensity ratio in tumor at 12 nmol at iv administration in presence of CYP1B1 inhibitor, ANF observed after 24 hrs by IVIS imaging analysis; assay type: ADME, organism-based, Neoplasm; settings: in vivo
[10] = Drug distribution in BALB/C mouse xenografted with human HCT-15 cells assessed as increase in photoacoustic signal in tumor at 12 nmol at iv administration observed after 6 hrs by photoacoustic imaging analysis; assay type: ADME, organism-based, Neoplasm; settings: in vivo
[11] = Drug distribution in BALB/C mouse xenografted with human HCT-15 cells assessed as increase in fluorescence intensity in tumor at 12 nmol at iv administration observed after 2 hr by IVIS imaging analysis; assay type: ADME, organism-based, Neoplasm; settings: in vivo
[12] = Drug distribution in BALB/C mouse xenografted with human HCT-15 cells assessed as increase in fluorescence intensity in tumor at 12 nmol at iv administration in presence of CYP1B1 inhibitor, ANF observed after 2 to 6 hrs by IVIS imaging analysis; assay type: ADME, organism-based, Neoplasm; settings: in vivo, time 2-6 hrs
[13] = Drug distribution in BALB/C mouse xenografted with human HCT-15 cells by measuring fluorescence intensity ratio in tumor at 12 nmol at iv administration observed after 2 hrs by IVIS imaging analysis; assay type: ADME, organism-based, Neoplasm; settings: in vivo
[14] = Drug distribution in BALB/C mouse xenografted with human HCT-15 cells assessed as increase in photoacoustic signal in tumor at 12 nmol at iv administration observed after 24 hrs by photoacoustic imaging analysis; assay type: ADME, organism-based, Neoplasm; settings: in vivo
Cytochrome P450 1B1 [15] = molecular target: T2, Cytochrome P450 1B1; experiment: Binding affinity to CYP1B1 in human HCT-15 cells assessed as increase in fluorescence signal at 0.5 to 1 uM incubated for 1 hr by DAPI staining based confocal laser scanning microscopic analysis; assay type: ADME, cell-based; settings: hct-15, 1 h, dose 0.5-1 µM
[16] = Drug distribution in BALB/C mouse xenografted with human HCT-15 cells by measuring fluorescence intensity ratio in tumor at 12 nmol at iv administration observed after 24 hrs by IVIS imaging analysis; assay type: ADME, organism-based, Neoplasm; settings: in vivo
[17] = Drug distribution in BALB/C mouse xenografted with human HCT-15 cells by measuring fluorescence intensity ratio in tumor at 12 nmol at iv administration in presence of CYP1B1 inhibitor, ANF observed after 2 hrs by IVIS imaging analysis; assay type: ADME, organism-based, Neoplasm; settings: in vivo
Cytochrome P450 1B1 [18] = molecular target: T2, Cytochrome P450 1B1; experiment: Binding affinity to CYP1B1 in human HCT-15 cells assessed as increase in fluorescence signal at nucleus at 0.5 to 1 uM incubated for 1 hr by DAPI staining based confocal laser scanning microscopic analysis; assay type: ADME, cell-based; settings: hct-15, 1 h, dose 0.5-1 µM
Cytochrome P450 1B1 [19] = molecular target: T2, Cytochrome P450 1B1; experiment: Binding affinity to CYP1B1 in human HCT-15 cells assessed as increase in fluorescence signal at cytoplasm at 0.5 to 1 uM incubated for 1 hr by DAPI staining based confocal laser scanning microscopic analysis; assay type: ADME, cell-based; settings: hct-15, 1 h, dose 0.5-1 µM
[20] = Drug distribution in BALB/C mouse xenografted with human HCT-15 cells by measuring fluorescence intensity ratio in tumor at 12 nmol at iv administration observed after 4 hrs by IVIS imaging analysis; assay type: ADME, organism-based, Neoplasm; settings: in vivo
[21] = Drug distribution in BALB/C mouse xenografted with human HCT-15 cells assessed as increase in photoacoustic signal in tumor at 12 nmol at iv administration observed after 2 hrs by photoacoustic imaging analysis; assay type: ADME, organism-based, Neoplasm; settings: in vivo
[22] = Drug distribution in BALB/C mouse xenografted with human HCT-15 cells by measuring fluorescence intensity ratio in tumor at 12 nmol at iv administration observed after 6 hrs by IVIS imaging analysis; assay type: ADME, organism-based, Neoplasm; settings: in vivo
[23] = Drug distribution in BALB/C mouse xenografted with human HCT-15 cells by measuring fluorescence intensity ratio in tumor at 12 nmol at iv administration in presence of CYP1B1 inhibitor, ANF observed after 6 hrs by IVIS imaging analysis; assay type: ADME, organism-based, Neoplasm; settings: in vivo
Cytochrome P450 1B1 [24] = molecular target: T2, Cytochrome P450 1B1; experiment: Binding affinity to CYP1B1 in human HCT-15 cells assessed as increase in fluorescence signal at 0.5 to 1 uM incubated for 1 hr in presence of compound 14c by DAPI staining based confocal laser scanning microscopic analysis; assay type: ADME, cell-based; settings: hct-15, 1 h, dose 0.5-1 µM
Cytochrome P450 1B1 [25] = molecular target: T2, Cytochrome P450 1B1; experiment: Binding affinity to CYP1B1 in human HFF-1 cells assessed as increase in fluorescence signal at 0.5 to 1 uM incubated for 1 hr by DAPI staining based confocal laser scanning microscopic analysis; assay type: ADME, cell-based; settings: hff-1, 1 h, dose 0.5-1 µM

pIC50 (Cytochrome P450 1A2): 5.83
Compound: COc1ccc(OC)c2c1c(OC)cc1c(=O)cc(-c3cc(F)cc(NC(=O)CCCCCCN)c3)oc12

Stability [1]: Stable | pKd (Cytochrome P450 1B1 [2]): 6.77
Compound: CCN1/C(=C/C=C/C=C/C2=[N+](CCCCCC(=O)NCCOCCOCCOCC(=O)Nc3cc(F)cc(-c4cc(=O)c5cc(OC)c6c(OC)ccc(OC)c6c5o4)c3)c3ccc4c(S(=O)(=O)[O-])cc(S(=O)(=O)O)cc4c3C2(C)C)C(C)(C)c2c1ccc1c(S(=O)(=O)O)cc(S(=O)(=O)O)cc21
Activity (HFF-1): Non-Toxic | viability at 10 µM (HCT-15): > 80%

pIC50 (Cytochrome P450 1B1 [3]): 8.69
Compound: COc1ccc(OC)c2c1c(OC)cc1c(=O)cc(-c3cc(N)cc(F)c3)oc12

pIC50 (Cytochrome P450 1B1 [3]): 7.02
Compound: COc1ccc(OC)c2c1c(OC)cc1c(=O)cc(-c3cc(O)cc(F)c3)oc12

pIC50 (Cytochrome P450 1A2): < 5.70
Compound: COc1ccc(OC)c2c1c(OC)cc1c(=O)cc(-c3cc(F)cc(NC(=O)COCCOCCOCCN)c3)oc12

Ratio [4]: 12.1 | Ratio [5]: 26.51 | Ratio [6]: 1.19 | Drug uptake [7]: Active | Drug uptake [8]: Active | Ratio [9]: 1.34 | Drug uptake [10]: Active | Drug uptake [11]: Active | Drug uptake [12]: Not Active | Ratio [13]: 1.92 | Drug uptake [14]: Not Active | Activity (Cytochrome P450 1B1 [15]): Active | Ratio [16]: 1.69 | Ratio [17]: 1.06 | Activity (Cytochrome P450 1B1 [18]): Active | Stability [1]: Stable | Activity (Cytochrome P450 1B1 [19]): Active | Ratio [20]: 1.95 | Drug uptake [21]: Active | Ratio [22]: 2.15 | Ratio [23]: 1.32 | pKd (Cytochrome P450 1B1 [2]): 7.03 | Activity (Cytochrome P450 1B1 [24]): Not Active | Activity (Cytochrome P450 1B1 [25]): Not Active
Compound: CCN1/C(=C/C=C/C=C/C2=[N+](CCCCCC(=O)NCCOCCOCCOCCOc3cc(F)cc(-c4cc(=O)c5cc(OC)c6c(OC)ccc(OC)c6c5o4)c3)c3ccc4c(S(=O)(=O)[O-])cc(S(=O)(=O)O)cc4c3C2(C)C)C(C)(C)c2c1ccc1c(S(=O)(=O)O)cc(S(=O)(=O)O)cc21
Activity (HFF-1): Non-Toxic | viability at 10 µM (HCT-15): > 80%

pIC50 (Cytochrome P450 1B1 [3]): 6.95
Compound: COc1ccc(OC)c2c1c(OC)cc1c(=O)cc(-c3ccc(O)c(F)c3)oc12

Stability [1]: Stable | pKd (Cytochrome P450 1B1 [2]): 6.67
Compound: CCN1/C(=C/C=C/C=C/C2=[N+](CCCCCC(=O)NCCCCCCCCC(=O)Nc3cc(F)cc(-c4cc(=O)c5cc(OC)c6c(OC)ccc(OC)c6c5o4)c3)c3ccc4c(S(=O)(=O)[O-])cc(S(=O)(=O)O)cc4c3C2(C)C)C(C)(C)c2c1ccc1c(S(=O)(=O)O)cc(S(=O)(=O)O)cc21
Activity (HFF-1): Non-Toxic | viability at 10 µM (HCT-15): > 80%
